From patent publication US20230066011A1, “PYRROLOPYRIMIDINE DERIVATIVE, AND PHARMACEUTICAL COMPOSITION FOR PREVENTING OR TREATING PROTEIN KINASE-RELATED DISEASE COMPRISING SAME AS ACTIVE INGREDIENT” (VORONOI CO., LTD., priority 2019, published 2023) come the findings set out here.

The test system of the experiment is THP-1 cells. Briefly: THP-1 GI50 (Table 4, cytokine secretion experiment). The format is cell-based. As to conditions: Homo sapiens.

SMILES strings stand for the structures.

In turn, `COCCNc1nc(Nc2ccc(C(=O)N3CCN(C4COC4)CC3)c3c2OCCO3)nc2[nH]cc(C(F)(F)F)c12` [Example 403, (8-((4-((2-methoxyethyl)-amino)-5-(trifluoromethyl)-7H-pyrrolo[2,3-d]pyrimidin-2-yl)amino)-2,3-dihydrobenzo[b] [1,4]dioxin-5-yl) (4-(oxetan-3-yl)piperazin-1-yl)methanone] yielded a GI50 of 40.4 µM.
